Values joined by “and” are separate entries in the source; they are usually repeats but may differ in a detail not shown here. Equal entries are not always repeated.
Conditions: Crystal

[Cl-].[Cl-].[Ga+2] [gallium(II) chloride]
Conditions	vapor or sublimation pressure
372 K	4.571e-05 kPa
374 K	3.09e-05 kPa
375 K	6.166e-05 kPa and 4.571e-05 kPa and 3.388e-05 kPa
378 K	4.571e-05 kPa
378.5 K	6.166e-05 kPa
379 K	9.12e-05 kPa
381 K	7.762e-05 kPa
381.5 K	6.761e-05 kPa
382.5 K	9.12e-05 kPa
383.5 K	0.0001202 kPa
384 K	0.0001202 kPa and 0.000123 kPa
385 K	0.0001072 kPa
386 K	0.0001514 kPa and 0.0001778 kPa
386.5 K	0.000123 kPa and 0.0001023 kPa
387 K	0.0001862 kPa
387.5 K	0.000123 kPa
388.5 K	0.0001778 kPa
389 K	0.0002089 kPa
390 K	0.0002399 kPa
390.5 K	0.0001549 kPa
391 K	0.0001698 kPa and 0.0001862 kPa
391.5 K	0.0002399 kPa and 0.0002754 kPa
392 K	0.000302 kPa
393 K	0.0001862 kPa
393.5 K	0.000302 kPa
394 K	0.0002455 kPa and 0.0003311 kPa and 0.0002138 kPa
395 K	0.0002754 kPa
396 K	0.0002951 kPa
396.5 K	0.000309 kPa
397.5 K	0.000389 kPa and 0.0005248 kPa
398 K	0.0002951 kPa and 0.0004169 kPa and 0.0004467 kPa
398.5 K	0.0004786 kPa
399 K	0.0003388 kPa and 0.0004786 kPa
399.5 K	0.0003802 kPa and 0.0003981 kPa and 0.000302 kPa
401 K	0.0005129 kPa
402 K	0.0007244 kPa and 0.0007413 kPa
402.5 K	0.0006607 kPa and 0.000389 kPa
403 K	0.0006607 kPa and 0.0004786 kPa
403.5 K	0.0005495 kPa
404 K	0.0007762 kPa
405 K	0.0006761 kPa and 0.0005888 kPa
405.5 K	0.0007762 kPa
406 K	0.000955 kPa and 0.0006761 kPa
406.5 K	0.0008913 kPa
407.5 K	0.000955 kPa and 0.0007762 kPa
408 K	0.0007079 kPa
409 K	0.0007762 kPa and 0.001023 kPa and 0.0007079 kPa
410 K	0.001202 kPa
410.5 K	0.000871 kPa and 0.001259 kPa and 0.001072 kPa
411 K	0.001023 kPa
411.5 K	0.001318 kPa and 0.001549 kPa
413 K	0.0009772 kPa and 0.001445 kPa
413.5 K	0.001514 kPa and 0.001445 kPa
414 K	0.001202 kPa and 0.001259 kPa and 0.001072 kPa
414.5 K	0.001288 kPa
415 K	0.002138 kPa
415.5 K	0.001259 kPa and 0.001905 kPa and 0.001862 kPa
416 K	0.001413 kPa and 0.001778 kPa
416.5 K	0.001905 kPa and 0.001549 kPa and 0.001288 kPa
417 K	0.001585 kPa and 0.001549 kPa
417.5 K	0.002089 kPa and 0.001698 kPa
418 K	0.002138 kPa
418.5 K	0.002399 kPa
419 K	0.002399 kPa and 0.002138 kPa
420 K	0.00195 kPa and 0.00263 kPa
421 K	0.003388 kPa and 0.002138 kPa
421.5 K	0.002138 kPa and 0.00302 kPa and 0.002951 kPa
422 K	0.002138 kPa and 0.002344 kPa
422.5 K	0.003236 kPa and 0.00302 kPa
423.5 K	0.002291 kPa
424 K	0.003802 kPa
424.5 K	0.002512 kPa and 0.002818 kPa
425.5 K	0.004266 kPa
426 K	0.003981 kPa [middle of 5 runs]
427 K	0.002754 kPa
427.5 K	0.004571 kPa and 0.003467 kPa
428 K	0.003236 kPa
428.5 K	0.003388 kPa and 0.004677 kPa
429 K	0.005248 kPa and 0.005129 kPa
430 K	0.004365 kPa and 0.005248 kPa and 0.003311 kPa
430.5 K	0.006026 kPa
431 K	0.003715 kPa
432 K	0.006457 kPa and 0.006761 kPa
432.5 K	0.004365 kPa
433 K	0.007079 kPa
434 K	0.006026 kPa and 0.005495 kPa
435.5 K	0.007943 kPa
436 K	0.005623 kPa and 0.008318 kPa and 0.005495 kPa
437 K	0.008913 kPa
438 K	0.007586 kPa
439 K	0.01 kPa
440 K	0.01096 kPa and 0.01072 kPa
441 K	0.00871 kPa and 0.007762 kPa

— the NIST ThermoML archive (doi:10.1021/je9008574)
